From the supplement of paper PMC10307832

Assays:
Test in all cases: relative viability (nuclei count vs DMSO), 5 days (fraction); higher = more cells survive
AT9283 + Alpelisib = compound: O=C(Nc1c[nH]nc1-c1nc2ccc(CN3CCOCC3)cc2[nH]1)NC1CC1 [AT9283] + Cc1nc(NC(=O)N2CCC[C@H]2C(N)=O)sc1-c1ccnc(C(C)(C)C(F)(F)F)c1 [Alpelisib] (partner 2 µM)
Outline: (§1)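 Relative viability equals treated-well nuclei counts divided by vehicle-well nuclei counts. Counts came from 4× images of lung cancer cell lines grown in 1536-well plates for 5 days after pin-tool dosing on the day after seeding. Dosing used one drug alone or a fixed anchor-drug dose plus five library-drug doses (not always all listed) in √10 steps, and values are medians of duplicate plates.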

Erlotinib + Palbociclib = compound: C#Cc1cccc(Nc2ncnc3cc(OCCOC)c(OCCOC)cc23)c1 [Erlotinib] + CC(=O)c1c(C)c2cnc(Nc3ccc(N4CCNCC4)cn3)nc2n(C2CCCC2)c1=O [Palbociclib] (partner 0.5 µM)
Outline: as §1

AT9283 + Palbociclib = compound: O=C(Nc1c[nH]nc1-c1nc2ccc(CN3CCOCC3)cc2[nH]1)NC1CC1 [AT9283] + CC(=O)c1c(C)c2cnc(Nc3ccc(N4CCNCC4)cn3)nc2n(C2CCCC2)c1=O [Palbociclib] (partner 0.5 µM)
Outline: as §1

Erlotinib + AZD7762 = compound: C#Cc1cccc(Nc2ncnc3cc(OCCOC)c(OCCOC)cc23)c1 [Erlotinib] + NC(=O)Nc1cc(-c2cccc(F)c2)sc1C(=O)N[C@H]1CCCNC1 [AZD7762] (partner 0.2 µM)
Outline: as §1

Erlotinib + Alpelisib = compound: C#Cc1cccc(Nc2ncnc3cc(OCCOC)c(OCCOC)cc23)c1 [Erlotinib] + Cc1nc(NC(=O)N2CCC[C@H]2C(N)=O)sc1-c1ccnc(C(C)(C)C(F)(F)F)c1 [Alpelisib] (partner 2 µM)
Outline: as §1

Cell Line | relative viability (AT9283 + Alpelisib; first compound 0.003 µM) | relative viability (AT9283 + Alpelisib; first compound 0.03 µM) | relative viability (AT9283 + Alpelisib; first compound 0.09487 µM) | relative viability (AT9283 + Alpelisib; first compound 0.3 µM) | relative viability (Erlotinib + Palbociclib; first compound 0.02 µM) | relative viability (Erlotinib + Palbociclib; first compound 0.2 µM) | relative viability (Erlotinib + Palbociclib; first compound 0.6325 µM) | relative viability (Erlotinib + Palbociclib; first compound 2 µM) | relative viability (AT9283 + Palbociclib; first compound 0.003 µM) | relative viability (AT9283 + Palbociclib; first compound 0.03 µM) | relative viability (AT9283 + Palbociclib; first compound 0.09487 µM) | relative viability (AT9283 + Palbociclib; first compound 0.3 µM) | relative viability (Erlotinib + AZD7762; first compound 0.02 µM) | relative viability (Erlotinib + AZD7762; first compound 0.2 µM) | relative viability (Erlotinib + AZD7762; first compound 0.6325 µM) | relative viability (Erlotinib + AZD7762; first compound 2 µM) | relative viability (Erlotinib + Alpelisib; first compound 0.02 µM) | relative viability (Erlotinib + Alpelisib; first compound 0.2 µM) | relative viability (Erlotinib + Alpelisib; first compound 0.6325 µM) | relative viability (Erlotinib + Alpelisib; first compound 2 µM)
NCI-H1395 | 1 | 0.804 | 0.409 | 0.431 | 0.619 | 0.532 | 0.657 | 0.571 | 0.597 | 0.598 | 0.397 | 0.305 | 0.421 | 0.367 | 0.338 | 0.407 | 1.34 | 1.08 | 1.08 | 1.07
LXF-289 | 0.964 | 1.01 | 0.132 | 0.105 | 0.583 | 0.566 | 0.531 | 0.539 | 0.608 | 0.647 | 0.254 | 0.152 | 1.13 | 1.07 | 1.05 | 1.03 | 1.08 | 1 | 0.976 | 0.913
NCI-H23 | 0.707 | 0.668 | 0.396 | 0.168 | 0.571 | 0.447 | 0.453 | 0.509 | 0.496 | 0.454 | 0.417 | 0.243 | 0.291 | 0.177 | 0.198 | 0.219 | 0.763 | 0.593 | 0.816 | 0.634
NCI-H1975 | 0.637 | 0.624 | 0.5 | 0.247 | 0.539 | 0.611 | 0.639 | 0.472 | 0.526 | 0.676 | 0.531 | 0.324 | 0.704 | 0.682 | 0.605 | 0.495 | 0.717 | 0.696 | 0.535 | 0.454
NCI-H3122 | 0.786 | 0.764 | 0.28 | 0.227 | 0.195 | 0.215 | 0.159 | 0.195 | 0.187 | 0.208 | 0.169 | 0.153 | 0.948 | 1.05 | 1 |  |  | 0.882 | 0.872 | 0.736
NCI-H727 | 0.669 | 0.434 | 0.313 | 0.235 | 0.615 | 0.513 | 0.586 | 0.476 | 0.583 | 0.626 | 0.514 | 0.428 | 0.455 | 0.488 | 0.437 | 0.463 | 0.612 | 0.48 | 0.459 | 0.463
EMC-BAC-2 | 0.775 | 0.499 | 0.173 | 0.157 | 0.529 | 0.501 | 0.553 | 0.505 | 0.471 | 0.376 | 0.289 | 0.247 | 1.1 | 1.08 | 1.26 | 1.04 | 0.762 | 0.649 | 0.685 | 0.542
NCI-H2085 | 0.946 | 0.894 | 0.615 | 0.411 | 0.465 | 0.44 | 0.379 | 0.381 | 0.498 | 0.473 | 0.413 | 0.319 | 0.92 |  | 0.732 | 0.454 | 0.935 | 0.81 | 0.673 | 0.645
